Test results as given in article PMC12113347, “Compound 3d Attenuates Metabolic Dysfunction-Associated Steatohepatitis via Peroxisome Proliferator-Activated Receptor Pathway Activation and Inhibition of Inflammatory and Apoptotic Signaling” (Metabolites, 2025).

Key:
[1] = test system: L02 cells; assay: Mitochondrial membrane potential test (JC-1) in FFA-treated L02 cells; assay type: cell-based, human; conditions: FFA-induced depolarization; 3d 20 μM
Protocol: (§1) L02 cells were inoculated in 6-well plates at 1 × 10^5 cells/mL, and after completing the lipid-accumulating cell modeling treatment according to the method described in 2.1, the cells were collected and washed with 1× PBS buffer.
Mitochondrial membrane potential (MMP) test: After the cells were co-incubated with FFAs and drugs for 24 h, the remaining medium was discarded and the cells were washed with 1× PBS buffer before being treated with JC-1 probe dye. A laser confocal microscope was used to take photographs, which were quantitatively analyzed using ImageJ software (V. 1.52a, Wayne Rasband National Institutes of Health, Bethesda, MD, USA).

[2] = test system: C57BL/6J male mice; assay: HFD-induced MASH model in mice: serum and liver biochemistry, body and liver weight, histology; assay type: in vivo
Protocol: All animal studies were conducted in accordance with national legislation and local guidelines at the Center for Laboratory Animals in Tianjin University of Science and Technology and approved by the Animal Ethics Committee of Tianjin University of Science and Technology (8 March 2022, Tianjin, China). The C57BL/6J male mice (6 weeks) were purchased from Henan Scribex Biotechnology Co, Ltd (Zhenzhou, China). Following a one-week period of acclimatization, the mice were fed a high-fat diet (HFD) comprising 60% fat (TP23300, Trophic Animal Feed High-Tech Co., Ltd., (Nantong, China)) and a low-fat control diet (TP23302, Trophic Animal Feed High-Tech Co., Ltd., (Nantong, China)) for 16 weeks.
After 16 weeks of continuous feeding on a high-fat diet, key indicators were tested to determine modeling success and drug administration was initiated. The mice were randomly divided into seven groups (n = 10) according to their body weight. The groups were as follows: control group (control diet, 0.5% CMC-Na), model group (HFD, 0.5% CMC-Na), positive control group (HFD, 100 mg/kg Fenofibrate), elafibranor group (HFD, 30 mg/kg), and 3d group (HFD, 3, 10, 30 mg/kg). The experiment was conducted over a period of eight weeks.
After fasting for 12 h, the mice were anaesthetized and blood samples were collected, as were the mice liver tissues. The ileal contents were collected and immediately frozen in liquid nitrogen and then transferred to storage at −80 °C. The blood samples were subjected to centrifugation at 3000 rpm/min for 10 min to obtain supernatant serum, which was stored at −80 °C. The liver tissues were weighed, and a portion of the liver was preserved in 4% paraformaldehyde for subsequent pathological sectioning, including staining with H&E, Masson, and Oil Red O. The remaining samples were stored at −80 °C for testing of various biochemical indices.
The serum levels of TG, total cholesterol (TC), low-density lipoprotein cholesterol (LDL-C), […] aminotransferase (AST), ALT, and TNF-α were determined according to the instructions of the kit. The levels of glutathione (GSH) and superoxide dismutase (SOD) were measured using liver tissue homogenates. The kits were purchased from the Nanjing Jiancheng Institute of Biological Engineering (Nanjing, China).

[3] = test system: L02 cells; assay: Effect of 3d on L02 cell proliferation/survival (Figure 1C); assay type: cell-based, human; conditions: 3d alone
[4] = test system: L02 cells; assay: FFA-induced lipid accumulation model in L02 cells (TG and ALT kits, Oil Red O); assay type: cell-based, human; conditions: 0.9 mM FFA
Protocol: Free fatty acids (FFAs, OA:PA = 2:1) were used to induce the lipid model in L02 cells (Guangzhou Huatuo Biological Technology Co., Ltd., Guangzhou, China). The L02 cells (1 × 10^5 cells/mL) were inoculated in 12-well plates. After 24 h, the cells were starved for 12 h and then treated with DMSO or FFAs for 24 h. Subsequently, the cells were exposed to fenofibric acid (100 μM) or 3d (10, 20, 40 μM) for another 24 h.
The cells were collected and lysed using cell lysis solution; the supernatants were subjected to triglycerides (TGs) and alanine aminotransferase (ALT) kit assays. Moreover, following the completion of the treatment, the cells were fixed with 4% paraformaldehyde and stained with an Oil Red O, with the objective of observing the morphology under an inverted microscope.

[5] = test system: L02 cells; assay: ROS assay (DCFH-DA, flow cytometry) in FFA-treated L02 cells; assay type: cell-based, human; conditions: FFA-induced L02 cells
Source text: as §1
Reactive oxygen species (ROS) assay: ROS production was detected in the collected cells using a DCFH-DA fluorescent probe diluted in serum-free medium, and the stained cells were washed with 1× PBS buffer 3 times and then analyzed by flow cytometry.

[6] = HFD mice, liver tissue homogenates
[7] = HFD-fed mice, 30 mg/kg, p < 0.05 vs. model

CNc1ccc(C(=O)/C=C/c2cc(C)c(OC(C)(C)C(=O)OC(C)(C)C)c(C)c2)cc1 [3d]
mitochondrial membrane potential [1]: partially restored
liver fibrosis (Masson staining) ([2]; HFD mice): successfully reversed
liver steatosis and lipid accumulation (HE, Oil Red O sections) ([2]; HFD mice): significantly reduce the steatosis and ballooning in the liver and bring it back to normal
serum TNF-α levels ([2]; HFD mice): reversed and returned to normal levels
serum levels of LDL-C ([2]; HFD mice): markedly diminish
body weight ([2]; HFD mice, 8 weeks of treatment): no significant effect
serum TG levels ([2]; HFD mice, 8 weeks, fenofibrate 100 mg/kg, elafibranor 30 mg/kg, 3d 3, 10, 30 mg/kg): decreased and returned to normal levels
liver GSH content [2, 6]: counteracting the reduction
liver SOD content [2, 6]: counteracting the reduction
TC levels ([2]; HFD mice, 3d 3, 10, 30 mg/kg): dose-dependent reduction
serum ALT activity ([2]; HFD mice, 3d 3, 10, 30 mg/kg): dose-dependent reduction
serum AST activity ([2]; HFD mice, 3d 3, 10, 30 mg/kg): dose-dependent reduction
serum LDL-C decline [2, 7]: 45%
serum TC reduction [2, 7]: 32%
serum TG decrease [2, 7]: 39%
serum TNF-α reduction [2, 7]: 57%
cell survival of L02 cells [3]: significantly increased cell survival
intracellular lipid accumulation (Oil Red O morphology) [4]: diminished intracellular lipid accumulation
ALT activity ([4]; 3d 10, 20, 40 μM, 24 h): notable reduction
intracellular TG levels ([4]; 3d 10, 20, 40 μM, 24 h): notable reduction
intracellular ROS levels [5]: significant decrease in ROS levels
